The subject of this assay is Fusarium fujikuroi. Nature of the assay: Fungicidal activity against Fusarium fujikuroi assessed as inhibition of mycelial growth incubated for 3 days at 28 degC. Type of assay: functional. To be noted: 72 h.

Values after ≈ are worked out from the molar mass of the structure shown.

In the case of `CC1(C)CC[C@@H](Cc2ccc(Cl)cc2)[C@@]1(O)Cn1cncn1`, the EC90 was found to be 2 µg/mL (≈ 6.25 µM). On to `CC1(C)CCCC[C@@H](Cc2ccc(Cl)cc2)[C@@]1(O)Cn1cncn1`, for which the EC90 is 4 µg/mL (≈ 11.5 µM). For `O[C@]1(Cn2cncn2)CCC[C@@H]1Cc1ccc(Cl)cc1` (relative stereo), the EC90 stood at 2.1 µg/mL (≈ 7.2 µM). The same measure for `O[C@]1(Cn2cncn2)CCC[C@H]1Cc1ccc(Cl)cc1` (relative stereo): 152 µg/mL (≈ 521 µM).

With `O[C@]1(Cn2cncn2)CCCC[C@@H]1Cc1ccc(Cl)cc1` (relative stereo), the EC90 was more than 400 µg/mL. The same measure for `O[C@]1(Cn2cncn2)CCCC[C@H]1Cc1ccc(Cl)cc1` (relative stereo): 64.3 µg/mL (≈ 210 µM); for `O[C@]1(Cn2cncn2)CCCCC[C@@H]1Cc1ccc(Cl)cc1` (relative stereo): 2.2 µg/mL (≈ 6.88 µM). `O[C@]1(Cn2cncn2)CCCCC[C@H]1Cc1ccc(Cl)cc1` (relative stereo): the EC90 is more than 400 µg/mL. Turning to `CC1(C)CC[C@H](Cc2ccc(Cl)cc2)[C@@]1(O)Cn1cncn1` (relative stereo), the 90% effect concentration (EC90) was determined as 0.2 µg/mL (≈ 0.625 µM). With `CC1(C)CCC[C@H](Cc2ccc(Cl)cc2)[C@@]1(O)Cn1cncn1` (relative stereo), the EC90 amounted to 15 µg/mL (≈ 44.9 µM). Take `CC1(C)CCC[C@@H](Cc2ccc(Cl)cc2)[C@@]1(O)Cn1cncn1` (relative stereo): the EC90 stood at 4.4 µg/mL (≈ 13.2 µM). `CC1(C)CCCC[C@H](Cc2ccc(Cl)cc2)[C@@]1(O)Cn1cncn1` (relative stereo): the EC90 was 1.3 µg/mL (≈ 3.74 µM).

What is called EC90 is the concentration at which the effect reaches the 90% level.

Values taken from ChEMBL document CHEMBL3045371, “Structure-Activity Relationships of the Azole Fungicide Metconazole and Its Related Azolylmethylcycloalkanols” (1999).
